The results in this text go back to patent US7432388B2 (Allergan, Inc., priority 2003, dated 2008).

The IC50 is the midpoint of a concentration-inhibition curve. By EC50 is commonly meant the concentration giving half of the maximal effect.

The structures appear in SMILES notation.

The target of test [1] is T1, RARγ (Homo sapiens, UniProt P13631).
T1 sequence (P13631 185-419 limits assumed): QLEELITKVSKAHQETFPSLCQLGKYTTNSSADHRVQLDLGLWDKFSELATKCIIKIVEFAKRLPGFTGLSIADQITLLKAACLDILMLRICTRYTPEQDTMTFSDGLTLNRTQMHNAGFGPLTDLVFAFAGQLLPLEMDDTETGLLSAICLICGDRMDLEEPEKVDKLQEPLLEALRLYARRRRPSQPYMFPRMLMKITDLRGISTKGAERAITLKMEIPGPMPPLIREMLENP
The test is described as follows: PGA-RAR antagonist assay (glucocorticoid-retinoid chimeric receptors). The class given is cell-based. Also noted: RAR IC50 (nM) γ; other: in the presence of 1 nM all-trans retinoic acid; fused on or other part: Glucocorticoid receptor DNA-recognition part in place of RAR's own. Conditions: for IC50: in the presence of 1 nM all-trans retinoic acid, read-out: RAR IC50 (nM) γ; for RAR γ (% Inhibition): percentage of the maximum inhibition of the activity induced by 1 nM all-trans retinoic acid. The protocol:
The results obtained in this assay are expressed in EC50 numbers, as they are also in the chimeric receptor transactivation assay. The other functional assay running in the presence of 1 nM all-trans retinoic acid, namely PGA-RAR antagonist assay (utilizing glucocorticoid-retinoid chimeric receptors), is a modified chimeric receptor transactivation assay which tests the compounds for their antagonist-like activity in the RARα, RARγ and RARγ receptor subtypes.

In test [2] the target is T2, RARα (Homo sapiens, UniProt P10276).
T2 sequence (P10276 183-417 limits assumed): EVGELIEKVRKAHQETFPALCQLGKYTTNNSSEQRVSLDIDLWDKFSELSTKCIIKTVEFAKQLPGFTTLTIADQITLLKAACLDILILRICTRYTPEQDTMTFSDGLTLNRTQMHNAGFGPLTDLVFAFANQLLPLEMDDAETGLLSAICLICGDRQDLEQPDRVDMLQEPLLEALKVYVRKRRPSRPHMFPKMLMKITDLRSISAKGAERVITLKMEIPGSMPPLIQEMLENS
The test is described as follows: chimeric receptor transactivation assay (agonist-like activity). The test is classed as cell-based. Set-up: RAR EC50 (nM) (% Efficiency) α. Conditions: read-out: RAR EC50 (nM) (% Efficiency) α. The protocol: Specifically, one assay in which the compounds were tested is a chimeric receptor transactivation assay which tests for agonist-like activity in the RARα, RARγ and RARγ receptor subtypes, and which is based on work published by Feigner P. L. and Holm M (1989) Focus, 112 is described in detail in U.S. Pat. No. 5,455,265. The specification of U.S. Pat. No. 5,455,265 is hereby expressly incorporated by reference.
(§1) A holoreceptor transactivation assay and a ligand binding assay which measure the antagonist/agonist like activity of the compounds of the invention, or their ability to bind to the several retinoid receptor subtypes, respectively, are described in published PCT Application No. WO WO93/11755 (particularly on pages 30-33 and 37-41) published on Jun. 24, 1993, the specification of which is also incorporated herein by reference. A detailed experimental procedure for holoreceptor transactivations has been described by Heyman et al. Cell 68, 397-406, (1992); Allegretto et al. J. Biol. Chem. 268, 26625-26633, and Mangelsdorf et al. The Retinoids: Biology, Chemistry and Medicine, pp 319-349, Raven Press Ltd., New York, which are expressly incorporated herein by reference. The results obtained in this assay are expressed in EC50 numbers, as they are also in the chimeric receptor transactivation assay. The other functional assay running in the presence of 1 nM all-trans retinoic acid, namely PGA-RAR antagonist assay (utilizing glucocorticoid-retinoid chimeric receptors), is a modified chimeric receptor transactivation assay which tests the compounds for their antagonist-like activity in the RARα, RARγ and RARγ receptor subtypes. The results from this assay are normally expressed in IC50 numbers (See Teng et al. J. Med. Chem. 40, 2445-2452, (1997) incorporated herein by reference.)

In test [3] the target is T3, RARα (Homo sapiens, UniProt P10276).
T3 sequence (P10276 1-462): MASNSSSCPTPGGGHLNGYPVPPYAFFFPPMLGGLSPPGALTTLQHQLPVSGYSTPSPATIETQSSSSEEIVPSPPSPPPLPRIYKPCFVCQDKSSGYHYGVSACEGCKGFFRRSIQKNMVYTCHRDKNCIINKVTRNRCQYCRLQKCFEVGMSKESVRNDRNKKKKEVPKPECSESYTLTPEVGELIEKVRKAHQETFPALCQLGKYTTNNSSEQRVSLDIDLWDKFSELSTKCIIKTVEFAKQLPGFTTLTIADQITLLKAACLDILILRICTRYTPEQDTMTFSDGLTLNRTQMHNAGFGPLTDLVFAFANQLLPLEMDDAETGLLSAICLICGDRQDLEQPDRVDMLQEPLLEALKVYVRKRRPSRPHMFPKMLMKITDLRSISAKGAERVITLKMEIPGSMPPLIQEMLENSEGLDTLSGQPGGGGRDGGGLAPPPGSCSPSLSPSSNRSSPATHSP
The test is described as follows: ligand binding assay. Conditions: expressed in Ki numbers, read-out: RAR Binding α.
Excerpt: as §1
(§2) The results of the ligand binding assay are expressed in Ki numbers. (See Cheng et al. Biochemical Pharmacology Vol. 22 pp 3099-3108, expressly incorporated herein by reference.)

Test [4] concerns the target T4, RARβ (Homo sapiens, UniProt P10826).
T4 sequence (P10826 1-455): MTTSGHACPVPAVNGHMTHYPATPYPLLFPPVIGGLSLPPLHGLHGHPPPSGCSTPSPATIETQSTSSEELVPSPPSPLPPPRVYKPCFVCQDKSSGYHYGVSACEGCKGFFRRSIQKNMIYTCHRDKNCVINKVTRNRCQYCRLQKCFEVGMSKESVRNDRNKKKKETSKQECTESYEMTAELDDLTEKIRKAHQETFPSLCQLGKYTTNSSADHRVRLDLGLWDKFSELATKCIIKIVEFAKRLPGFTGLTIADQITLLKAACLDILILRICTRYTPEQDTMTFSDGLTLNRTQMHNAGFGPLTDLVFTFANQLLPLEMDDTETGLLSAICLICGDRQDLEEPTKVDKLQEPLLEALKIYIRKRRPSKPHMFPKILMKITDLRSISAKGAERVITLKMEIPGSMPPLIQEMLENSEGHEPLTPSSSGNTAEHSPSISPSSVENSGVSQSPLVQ
The test is described as follows: ligand binding assay. Conditions: expressed in Ki numbers, read-out: RAR Binding β.
Excerpt: as §1, §2

The target in test [5] is T1, RARγ. The test is described as follows: chimeric receptor transactivation assay (agonist-like activity). The class given is cell-based. Set-up: RAR EC50 (nM) (% Efficiency) γ. Conditions: read-out: RAR EC50 (nM) (% Efficiency) γ.

Turning to `Cc1ccc(C2=CCC(C)(C)c3cc(C(/C=C/c4ccc(C(=O)O)cc4)=NO)ccc32)cc1` (racemic) [Compound 7c, 4-[3-(8,8-Dimethyl-5-p-tolyl-7,8-dihydro-naphthalen-2-yl)-3-hydroxyimino-propenyl]-benzoic acid], the IC50 in test [1] is 2 nM. The “RAR γ (% Inhibition)” value in test [1] was 108%. For the same compound, the EC50 in test [2] and in test [5] was over 10000 nM throughout. Moreover, the Ki in test [3] is 2.9 µM; in test [4], 1.3 µM.
As to `Cc1ccc(C2=CCC(C)(C)c3cc(C(/C=C/c4ccc(C(=O)O)cc4)=N/O)ccc32)cc1` [Compound 7a, E-4-[3-(8,8-Dimethyl-5-p-tolyl-7,8-dihydro-naphthalen-2-yl)-3-hydroxyimino-propenyl]-benzoic acid], the IC50 in test [1] amounted to 0.6 nM. The “RAR γ (% Inhibition)” value in test [1] is 95%. Besides, the EC50 in test [2] and in test [5] was over 10000 nM throughout. For the same compound, the Ki in test [3] was determined as 3 µM; in test [4], 5 µM.
On to `Cc1ccc(C2=CCC(C)(C)c3cc(C(/C=C/c4ccc(C(=O)O)cc4)=N\O)ccc32)cc1` [Compound 7b, Z-4-[3-(8,8-dimethyl-5-p-tolyl-7,8-dihydro-naphthalen-2-yl)-3-hydroxyimino-propenyl]-benzoic acid], for which, in test [1], the half-inhibitory concentration (IC50) was found to be 25 nM. The “RAR γ (% Inhibition)” value in test [1] is given as 88%. Further, the EC50 in test [2] and in test [5] was over 10000 nM each time. Further, the Ki turned out to be 5.2 µM in test [3] and 1.9 µM in test [4].
For the compound `Cc1ccc(C2=CCC(C)(C)c3cc(C(/C=C/c4ccc(C(=O)O)cc4F)=N/O)ccc32)cc1` [Compound 9a, E-4-[3-(8,8-Dimethyl-5-p-tolyl-7,8-dihydro-naphthalen-2-yl)-3-hydroxyimino-propenyl]-3-fluoro-benzoic acid], the IC50 in test [1] worked out at 5 nM. For the same compound, the “RAR γ (% Inhibition)” value in test [1] amounted to 90%. The EC50 in test [2] and in test [5] was over 10000 nM throughout. In addition, the Ki in test [3] stood at 13 µM; in test [4] it was 15 µM.
Regarding `Cc1ccc(C2=CCC(C)(C)c3cc(C(/C=C/c4ccc(C(=O)O)cc4F)=N\O)ccc32)cc1` [Compound 9b, Z-4-[3-(8,8-Dimethyl-5-p-tolyl-7,8-dihydro-naphthalen-2-yl)-3-hydroxyimino-propenyl]-3-fluoro-benzoic acid], the IC50 in test [1] was found to be 13 nM. The “RAR γ (% Inhibition)” value in test [1] stood at 78%. Further, the EC50 in test [2] and in test [5] was over 10000 nM each time. The Ki in test [3] was 13 µM; in test [4], 10 µM.
For the compound `Cc1ccc(C2=CC(C)(C)c3cc(C(/C=C/c4ccc(C(=O)O)cc4)=N/O)ccc32)cc1` [Compound 16a], the IC50 in test [1] came to 27 nM. In addition, the “RAR γ (% Inhibition)” value in test [1] is reported as 78%. Further, the EC50 in test [2] and in test [5] was over 10000 nM each time. The Ki in test [3] was 9 µM; in test [4] it was 10 µM.
Consider `Cc1ccc(C2=CC(C)(C)c3cc(C(/C=C/c4ccc(C(=O)O)cc4)=N\O)ccc32)cc1` [Compound 16b], for which the IC50 in test [1] stood at 67 nM. The “RAR γ (% Inhibition)” value in test [1] is reported as 54%. Moreover, the EC50 in test [2] and in test [5] was over 10000 nM throughout. The Ki in test [3] stood at 7 µM; in test [4], 10 µM.
As to `Cc1ccc(C2=CC(C)(C)c3cc(C(/C=C/c4ccc(C(=O)O)cc4F)=N/O)ccc32)cc1` [Compound 18a, E-4-[3-(3,3-Dimethyl-1-p-tolyl-3H-inden-5-yl)-3-hydroxyimino-propenyl]-3-fluoro-benzoic acid], in test [1], the IC50 is 52 nM. Also, in test [1], the “RAR γ (% Inhibition)” value turned out to be 70%. In addition, the EC50 in test [2] and in test [5] was over 10000 nM in each case. Also, the Ki in test [3] is 12 µM; in test [4], 10 µM.
Consider `Cc1ccc(C2=CC(C)(C)c3cc(C(/C=C/c4ccc(C(=O)O)cc4F)=N\O)ccc32)cc1` [Compound 18b, Z-4-[3-(3,3-Dimethyl-1-p-tolyl-3H-inden-5-yl)-3-hydroxyimino-propenyl]-3-fluoro-benzoic acid], for which the IC50 in test [1] stood at 226 nM. The “RAR γ (% Inhibition)” value in test [1] is listed as 58%. In addition, the EC50 in test [2] and in test [5] was over 10000 nM each time. The figures for the Ki in test [3] and in test [4] were 23 µM and 10 µM, respectively.
